{"source": "patent US7056884B2", "about": "“Reduced FK228 and use thereof” (Astellas Pharma Inc., priority 2000, dated 2006)", "system": "Mouse histone deacetylase", "test": "Assay of histone deacetylase activity ([3H] acetylated histone, crude histone deacetylase from FM3A cells)", "type": "biochemical", "details": "crude histone deacetylase fraction from FM3A cells, [3H] acetylated histone substrate, 37° C. for 10 min", "procedure": "The histone deacetylase inhibitory activity of the FR135313 substance synthesized in Production Example 1 was examined.\nMouse breast cancer FM3A was supplied by Dr. Dai Ayusawa of Medical Department, Yokohama City University. This cell was subcultured in an ES medium containing 2% FBS (Flow Laboratories, hereinafter to be referred to as ES medium) at 37° C., in 5% CO2.\nThe [^3H] acetylated histone to be the substrate of histone deacetylase was prepared by culturing 1×10^8 cells of FM3A cell (suspended in 50 ml of ES medium) in the presence of 0.5 mCi/ml [^3H] sodium acetate and 5 mM sodium butyrate at 37° C. in 5% CO2 for 30 min, and immediately extracting histone fraction from the treated cells according to the following method. The specific radioactivity was 0.45 μCi/mg histone.\nExtraction of histone protein from culture cell was conducted according to the method of Yoshida et al. (M. Yoshida et al., J. Biol. Chem. 265, 17174–17179 (1990)). […]\n4 μl of [^3H] acetylated histone (2500 cpm/5 μg) and 96 μl of crude histone deacetylase fraction were admixed. […] The reaction was terminated by the addition of 10 μl of concentrated hydrochloric acid, and released [^3H] acetic acid was extracted with 1 ml of ethyl acetate, from which 0.9 ml was added to 5 ml of toluene scintillation solution and the radioactivity was measured.", "data": [{"compound": "C/C=C1\\NC(=O)[C@@H](CS)NC(=O)[C@@H](C(C)C)NC(=O)C[C@@H](/C=C/CCS)OC(=O)[C@H](C(C)C)NC1=O", "note": "[FR135313 substance]", "values": [{"measurement": "histone deacetylase inhibitory activity IC50", "result": "not more than 1 ng/ml"}]}]}
